The source of these data is US20120006538A1, “METHOD FOR PRE-TREATMENT OF SUBTERRANEAN SITES ADJACENT TO WATER INJECTION WELLS” (E. I. DU PONT DE NEMOURS AND COMPANY, priority 2010, published 2012).

Series [1] is described as follows: Amine concentration in brine #2 over amine-coated core sand, titration with 10% acetic acid (Example 5). To be noted: titration with 10 wt % acetic acid, core sand in brine #2.
A short description of series [2]: Amine concentration in brine #2 over amine-coated core sand, titration with 1N HCl (Example 2). It is filed as physicochemical. To be noted: core sand in brine #2. How it is done: Helium was used as the carrier gas.
38 milligrams (mg) of N N-Dimethyl-1-Dodecanamine (hereafter referred to as “the amine”) was added to 10.210 gr of Pentane. This solution was added to 10.1845 gr of specific sand layers (Oa and Ob) obtained from the Schrader Bluff formation of the Milne Point Unit of the Alaskan North slope. The oil content of the sand was first removed using a mixture of methanol and toluene (50/50, volume/volume) as solvent washes. The solvent mixture was subsequently evaporated off the core sand to produce clean, dry, flowable core sand. This sand was mixed with the amine and pentane solution to produce a slurry. This slurry was thoroughly mixed and the pentane was evaporated off leaving the amine on the sand (hereafter referred to as sand/amine mixture). 100 ml of brine #2 (Table 3) was added to the sand/amine mixture to create the sand/amine/brine mixture. […] The fact that the amine was not detected underlined its strong binding to the sand particles. […] The data underlines the remarkable efficiency of an acid at ionizing and removing the amine from the sand.

The nature of series [3]: Amine concentration in brine #2 over amine-coated core sand, titration with 10% nitric acid (Example 4). The settings on record: titration with 10 wt % nitric acid, core sand in brine #2. How it is done:
Concentration of amines, in media and water, were analyzed by gas chromatography (GC). An Agilent Model 5890 (Agilent, Wilmington, Del.), GC equipped with a […] and a split/splitless injector, a DB-FFAP column (30 meter length×0.32 millimeter (mm) depth×0.25 micrometer particle size). […] The system was calibrated using a sample of N,N-Dimethyl-1-Dodecaneamine (Aldrich). Helium was used as the carrier gas. A temperature gradient of 50 degrees Celsius (° C.) to 250° C. at 30° C. increase per minute (min) was used. Retention times (in minutes, min) for various chemicals of interest included: N,N-Dimethyl-1-Dodecaneamine (8.08 min); N,N-Dimethyl-1-Tetradecaneamine (8.85 min); N,N-Dimethyl-1-Hexadecane-amine (9.90 min); N,N-Dimethyl-1-Octadecaneamine (10.26 min) and N-Methyl,N-Benzyl)-1-Tetradecaneamine (11.40 min).
The procedure outlined in Example 2 was used to produce the sand/amine mixture except that 519 mg of the amine, 10 gr of Pentane. and 60.062 gr of sand from the Oa and Ob layers were used. 29.065 gr of this sand/amine mixture was added to 100 ml of brine #2 (Table 3) to create the sand/amine/brine mixture. […] 0.1 ml of 10 weight percent (wt %) nitric acid in water was added to this solution, and the pH and the amine concentration were measured again.

For `CCCCCCCCCCCCN(C)C` [N N-Dimethyl-1-Dodecanamine], the “pH of complete ionization and solubilization in the water of the amine” value in series [1] and in series [3] was less than 6.7 throughout. For the same molecule, the “pH of complete ionization and solubilization of the amine in the water” value in series [2] was less than 6.0.
